Reference: article PMC6611213, “Key Features Relevant to Select Antigens and TCR From the MHC-Mismatched Repertoire to Treat Cancer” (Frontiers in Immunology, 2019)

Columns and labels:
[1] = system: HLA-B7 monomers; test: Thermal shift assay (DSF) of p-MHC complexes; type: binding, human; conditions: for Thermal stability V50: 2 µM monomer, 150 mM NaCl, 10 mM HEPES pH 7.4, 3 mM EDTA, SYPRO orange, 21°C to 95°C, mean of quadruplicates (n=2); for thermal V50: Boltzmann fitting, rounded
Protocol: (§1) (A) Thermal shift assay of MPO-peptides in comparison to pp65 and MPO2+L1. Boltzmann fitting was used to determine V50 values (half-maximal denaturation) for each p-MHC complex after gradual heating from 21°C to 95°C. The mean of quadruplicates is shown (n=2). (B) Measurement of kinetic stability of indicated p-MHC complexes in comparison to pp65 and MPO2+L1 at constant temperature of 37°C. For the determination of half-maximal decay of p-MHC complexes, the slowest constant rates were used after fitting the fluorescence values with an exponential two-phase decay equation. The mean of quadruplicates is shown (n=2). (A,B) The fluorescence was measured by monitoring the intensity of SYPRO orange protein dye binding to hydrophobic core regions of unfolded p-MHC-complexes. (C) Occurrence of the MPO2 and MPO5 peptides on the surface of indicated AML cell lines with endogenous HLA-B7 expression using the heavy labelled Leu7 counterpart for detection. Logarithmic intensities of MPO peptide surface presentation for MPO peptides are shown in duplicates. MPO5 peptides are depicted in blue, MPO2 peptides are depicted in green (n=2).
(§2) For differential scanning fluorimetry (DSF), i.e. thermal shift assay and kinetic stability measurement, MPO2-, MPO2+L1-, MPO5- or pp65(417-426) peptide exchanged HLA-B7 monomers were used in a concentration of 2µM and analyzed on a StepOnePlus RT-PCR instrument (Applied Biosystems, Foster City, CA, USA), respectively. Samples were measured in a final volume of 20µl in MicroAmp^R Fast Optical 96-well reaction plates (Applied Biosystems) containing 150mM NaCl, 10mM HEPES (pH 7.4), 3mM EDTA and 10x SYPRO orange (Thermo Fisher Scientific) as described previously (Hellman et al., 2016). Analysis was done following the recommendations described elsewhere (Niesen et al., 2007) using the Microsoft Excel-based tool “DSF Analysis v3.0.2” available under the following link (ftp://ftp.sgc.ox.ac.uk/pub/biophysics). For accurate ﬁtting and calculation of V50-values, the Boltzmann equation was performed using GraphPad Prism (version 7.04, San Diego, USA). The kinetic stability was analyzed at constant 37°C and fluorescence was measured every 5 minutes. The fluorescent data were fit to a two-phase decay function and slowest rates for half-lives were calculated using GraphPad Prism (version 7.04, San Diego, USA).

[2] = system: HLA-B7 monomers; test: Kinetic stability of p-MHC complexes at 37°C (DSF); type: binding, human; conditions: DSF at constant 37°C; for Half-life 37°C: pH 7.4, SYPRO orange, two-phase decay, slowest rate, mean of quadruplicates (n=2)
Protocol: as §1, §2

[3] = system: HLA-B7+ LCL1 cell line; test: IFN-γ release by TCRF5.4-transduced PBMC to peptide-pulsed LCL1; type: cell-based, human; conditions: peptide-pulsed LCL1, E/T 1:1, ELISA, triplicates (n = 2)
Protocol: (§3) An E/T ratio of 1:1 was used. IFN-γ secretion of the supernatants after co-cultivation was measured by IFN-γ ELISA. […] (B) Beta-2-microglobulin (B2M)-ELISA of UV-mediated peptide exchanged HLA-B7 monomers. V50 values of a Boltzmann fitting for each MPO-peptide was determined by the optical density of B2M after degraded amounts of MPO-peptides were used for HLA-stabilization. […] (C) Pooled results of (B) for MPO5 (n = 4), MPO2 (n = 4), and MPO2+L1 (n = 3). Significance is calculated by Mann-Whitney Test: *p = 0.0286. TEXT PRINTED IN THE PICTURE: (B) MPO5: V50 = -5,204 | (B) MPO2: V50 = -4,610 | (B) MPO2+L1: V50 = -4,143

[4] = system: HLA-B7 monomers; test: UV-mediated peptide exchange, B2M ELISA; type: binding, human; conditions: for Stability after UV-peptide exchange, V50: Pooled values of at least three independent experiments, 0–200 μM peptide, UV 366 nm, B2M ELISA, Boltzmann fit; for HLA-stabilization potential: UV-peptide exchange, titrated peptide
Protocol: Biotinylated HLA-B7 monomers loaded with the UV-cleavable epitope AARG(J)TLAM were created as previously described ([33]). Peptide-HLA stability was measured using the protocol on the basis of Rodenko et al. ([34]). In brief, HLA-B7 monomers loaded with the UV-sensitive peptide were exposed to UV light (366 nm) in the presence of graded amounts (0–200 μM) of MPO peptides. Afterward 1:10 dilutions of the UV-exchanged monomers were adhered via streptavidin to the bottom of a 96-well plate (F96 maxisorp nunc-immune plate, Thermo scientific) and a beta-2-microglobulin ELISA was performed. The OD measurements were performed on a Tecan Sunrise multi-well-reader using Magellan software (version 7.2).
as §3
To verify the stability results of all three MPO-peptides experimentally, we performed HLA-B7 UV-peptide exchange assays with titrated amounts of peptide added to a constant concentration of HLA-B7 monomers bound to a UV-sensitive peptide. […] Thus, our results oppose the results of the NetMHC stability prediction. As a second experiment, we performed thermal shift assays for the MPO peptides to characterize their potential to prevent denaturation of the HLA-complex with ascending temperature (Supplementary Figure 3A; Table 1).

[5] = system: HL60, ML2, NB4 and SiG-M5 AML cell lines; test: Cytokine secretion by TCR-transduced CD8+ T cells to AML cell lines; type: cell-based, human; conditions: AML cell lines pulsed with MPO2 or MPO5
Protocol: The cytotoxic reactivity of T cells was tested by flow cytometry making use of changes in signal of the HLA-B7eGFP-transgenic target cells during co-cultivation for different time periods and effector to target ratios. For relative quantification of cytotoxicity, AccuCheck counting beads were used according to the manufacturer's protocol (Thermo Fisher Scientific) and the results were normalized to either non-TCR-transduced T cells or irrelevant T-cell clones. The supernatants of the co-cultivation were used to measure IFN-γ by ELISA (BD) or GM-CSF, IFN-γ, and lL-2 multiplexed by flow cytometry (Miltenyi Biotec) according to the manufacturer's instructions. […] If not stated otherwise, the effector to target ratio was set to 1:1 for the co-incubation assays using 20,000 cells in each fraction.
Half-maximal IFN-γ release was calculated using logarithmic dose-response fitting algorithm with variable slope (EC50) of GraphPad Prism. Mean ± SD of triplicates of one representative experiment are shown (n = 6). […] 10.000 effector cells were used in a ratio of 1:1. Standard deviations of the mean of triplicates are shown (n = 4). (Gi−iv) Cytokine secretion (GM-CSF, IFN-γ, and IL-2) measured by flow cytometry based multiplex analysis in response to selected AML cell lines is shown in triplicates either unpulsed or additionally pulsed with MPO2 or MPO5.

[6] = system: AML cell lines; test: Targeted MS of surface-presented peptides; parameters: species or system human; conditions: targeted MS with heavy labelled peptides; MPO2 compared to MPO5 (n=2)
Protocol: as §1, with “MPO5 peptides are depicted in blue, MPO2 peptides are depicted in green (n=2).” left out
The MPO2 and MPO5 ligands were identified using an immunopeptidomic approach as previously described (Klar et al., 2014). For the targeted identification and relative quantification of both peptides, HLA-I peptides were purified from 5x10^8 cells of each cell line as previously described (Bassani-Sternberg et al., 2016). […]

| Sequence | Thermal stability V50 [1] | thermal V50 [1] | Half-life 37°C [2] | IFN-γ secretion by TCRF5.4-transduced T cells [3] | Stability after UV-peptide exchange, V50 [4] | HLA-stabilization potential [4] | Half-life (decay of HLA-complexes) 37°C [2] | effect of additional peptide pulsing on cytokine secretion [5] | surface presentation on AML cell lines [6] |
| --- | --- | --- | --- | --- | --- | --- | --- | --- | --- |
| LTPAQLNVL [MPO2+L1] | 44.0 °C | 44 °C | 2.9 h | detected IFN-γ secretion | −3.728 log10 M | lowest potential for HLA-stabilization | – | – | – |
| TPRVTGGGAM [pp65, pp65(417-426) control peptide […], reference compound] | 50.0 °C | 50 °C | 5.6 h | – | – | – | – | – | – |
| NPRWDGERL [MPO5] | 46.4 °C | 46 °C | 4.1 h | – | −5.535 log10 M | almost one log increased potential to rescue the HLA-B7 molecule | 4.1 h | did not have a major impact on cytokine secretion | – |
| TPAQLNVL [MPO2] | 46.3 °C | 46 °C | 3.5 h | – | −4.671 log10 M | – | 3.5 h | these differences could be compensated by additional MPO2 peptide pulsing | markedly lower presented on the surface of all AML cells lines compared to MPO5 |
